Data from patent US20090099218A1, “SYNTHESIS OF NOVEL TUBULIN POLYMERIZATION INHIBITORS: BENZOYLPHENYLUREA (BPU) SULFUR ANALOGS” (priority 2007, published 2009).

Legend:
LAPC-4 = assay: MTT growth inhibition, prostate cancer cell line LAPC-4; format: cell-based, human; conditions: for IC50: Homo sapiens, LAPC4, MTT assay, average of three independent experiments
Description: This MTT assay was carried using human prostate cancer cell lines CWR22R, LAPC-4 and LnCap using Promega cell titer 96 nonradioactive cell proliferation kits. Cells were trypsinized and centrifuged at 1000 rpm for 5 minutes and the supernatant was aspirated. Cells were resuspended with HBSS to a concentration of 10^6/ml. Cell suspension was diluted in serum containing medium to plate 2000 cells/well/0.2 ml. Cell suspension was transferred to sterile solution basin. Cells were plated using multichannel pipette set at 200 μl and incubated overnight for attachment. One plate was prepared for day 0 MTT assay as follows: 100 μl of media was removed from each well using multichannel pipette and 15 μl of MTT reagent was added. Plates were incubated at 37° C. for 4 hrs. […] of STOP solution was added to each well and incubated at room temperature for 1 hour. Absorbance was measured at 570 and 650 nm on plate reader. All the media from the remaining plates were carefully removed and the cells were treated with the media containing drug. MTT assays were done on days 0, 3, 5 and 7. In the preliminary screening […] BPU sulfur analogs 6l, 6h, 6n, 7d and 8h were screened and their activity was compared with compound 1.
Compounds with significant inhibitory activity in pancreatic cancer cells were further evaluated against prostate cancer cell lines in the MTT assay, (Mosmann, T., J. Immunol. Methods 65:55-63 (1983)) and the results were compared to those for compound 1 (Table 3).

tubulin = assay: Inhibition of [3H]colchicine binding; conditions: Tubulin 1 μM; [3H]colchicine and inhibitor at 5 μM
MCF-7 cells = assay: Apoptosis of MCF-7 cells; format: cell-based; conditions: 48 hours

Row | Compound | IC50 (LAPC-4) | colchicine binding (% ± SD), inhibition of [3H]colchicine binding (tubulin) | rate of apoptosis (MCF-7 cells; 10 nM) | rate of apoptosis (MCF-7 cells; 30 nM) | rate of apoptosis (MCF-7 cells; 100 nM) | increase in activity compared to 7c (LAPC-4; LAPC-4)
1 | O=C(NC(=O)c1ccccc1[N+](=O)[O-])Nc1ccc(Sc2ncc(Br)cn2)cc1 [Compound 6n, 1-[4-(5-Bromopyrimidin-2-ylsulfanyl)phenyl]-3-(2-nitrobenzoyl)-urea] | 50 nM | 17 ± 3% | 29.7% | 51.2% | 53.6% | –
2 | Nc1ccccc1C(=O)NC(=O)Nc1ccc(Sc2ncc(Br)cn2)cc1 [Compound 7d] | 100 nM | – | – | – | – | 7 fold
